# In US20100168150A1, “Camptothecin Analogue Compounds, a Process for Their Preparation and Pharmaceutical Compositions Containing Them” (Les Laboratoires Servier, priority 2005, published 2010):
# Counter-ions that a name gives are not always drawn.
# How the values were obtained:
# murine leukaemia L1210 = experiment: In vitro cytotoxicity, Microculture Tetrazolium Assay, L1210; format: cell-based; conditions: L1210 cells, 48 hours exposure, inhibition of proliferation
# Procedure: (§1) The murine leukaemia L1210 and the human colon carcinomas HCT116 and HT29 were used in vitro. The cells are cultured in RPMI 1640 complete culture medium containing 10% foetal calf serum, 2 mM glutamine, 50 units/ml of penicillin, 50 μg/ml of streptomycin and 10 mM Hepes, pH=7.4. The cells are distributed on microplates and are exposed to the cytotoxic compounds for 4 doubling times, that is to say 48 hours (L1210) or 96 hours (HCT116 and HT29). The number of viable cells is then quantified by a colorimetric assay, the Microculture Tetrazolium Assay (J. Carmichael et al., Cancer Res.; 47, 936-942, (1987)). The results are expressed in terms of the IC50 (the concentration of cytotoxic agent which inhibits proliferation of the treated cells by 50%).
# [1] = system: human colon carcinoma HCT116; experiment: In vitro cytotoxicity, Microculture Tetrazolium Assay, HCT116; format: cell-based; conditions: HCT116 cells, 96 hours exposure, inhibition of proliferation
# Procedure: as §1
# [2] = system: human colon carcinoma HT29; experiment: In vitro cytotoxicity, Microculture Tetrazolium Assay, HT29; format: cell-based; conditions: HT29 cells, 96 hours exposure, inhibition of proliferation
# Procedure: as §1
# [3] = In vivo toxicity, maximum tolerated dose; conditions: nude (bab/c), mouse, in vivo; nude mice, intravenous administration once per week for 3 weeks; largest dose causing neither death nor weight loss of more than 20%
# Procedure: (§2) The compounds are formulated in a Tween/water mixture and administered by the intravenous (i.v.) route (administration over three weeks at the rate of once per week, the injection volume being 0.2 ml/mouse with increasing doses of compounds of 6.25, 12.5, 25 and 50 mg/kg) to nude mice (bab/c supplied by Iffa Credo) weighing about 20 g. The maximum tolerated dose (MTD) is the largest dose causing neither death nor a weight loss of more than 20%.
# nude mice = experiment: In vivo toxicity, maximum tolerated dose; conditions: i.v. once per week for 3 weeks, compared with compound of Preparation 2
# Procedure: as §2
# HCT116 = experiment: In vivo activity with respect to HCT116; conditions: compared with non-esterified homologue (compound of Preparation 2)
Compound,IC50 (murine leukaemia L1210; Mus musculus) [nM],"IC50 ([1]; Homo sapiens, HCT-116) [nM]","IC50 ([2]; Homo sapiens, HT-29) [nM]",also measured
"CCC1(OC(=O)CCN2CC[C@H]3CCCC[C@@H]3C2)C(=O)Cc2c1cc1n(c2=O)Cc2c-1nc1cc3c(cc1c2C1CCC1)OCO3 (stereo partly drawn) [Example 23, 7-Ethyl-2,3-methylenedioxy-13-cyclobutyl-8,10-dioxo-8,9,10,12-tetrahydro-7H-cyclopenta[6,7]indolizino[1,2-b]quinolin-7-yl 3-[(4aR,8aS)-octahydroisoquinolin-2(1H)-yl]propanoate hydrochloride]",7.3,1.1,2.4,
"CCC1(OC(=O)CCN2CCc3cc(OC)c(OC)cc3C2)C(=O)Cc2c1cc1n(c2=O)Cc2c-1nc1cc3c(cc1c2C1CCC1)OCO3 (stereo not drawn) [Example 24, 7-Ethyl-2,3-methylenedioxy-13-cyclobutyl-8,10-dioxo-8,9,10,12-tetrahydro-7H-cyclopenta[6,7]indolizino[1,2-b]quinolin-7-yl 3-[(6,7-dimethoxy-3,4-dihydroisoquinolin-2(1H)-yl]propanoate hydrochloride]",,,,IC50 (murine leukaemia L1210): 7.9 nM; IC50 [1]: 0.7 nM; IC50 [2]: 2.6 nM
"CCC1(OC(=O)CCN2CCCCC2)C(=O)Cc2c1cc1n(c2=O)Cc2c-1nc1cc3c(cc1c2C)OCO3 (stereo not drawn) [Example 1, 7-Ethyl-2,3-methylenedioxy-13-methyl-8,10-dioxo-8,9,10,12-tetrahydro-7H-cyclopenta[6,7]indolizino[1,2-b]quinolin-7-yl 3-piperidinopropanoate hydrochloride]",4.2,,,
"CCC1(OC(=O)CCN2CCCCC2)C(=O)Cc2c1cc1n(c2=O)Cc2c-1nc1cc3c(cc1c2C1CCC1)OCO3.Cl (stereo not drawn) [Example 2, 7-Ethyl-2,3-methylenedioxy-13-cyclobutyl-8,10-dioxo-8,9,10,12-tetrahydro-7H-cyclopenta[6,7]indolizino[1,2-b]quinolin-7-yl 3-piperidinopropanoate hydrochloride]",,1.5,3.7,MTD at 3 weeks [3]: 25 mg/kg; toxicity relative to the non-esterified homologue (compound of Preparation 2) (nude mice): two times less toxic; in vivo activity with respect to HCT116 compared with compound of Preparation 2 (HCT116): same in vivo activity
